Experimental data from publication PMC12085125 (Drug Design, Development and Therapy, 2025).

Key:
[1] = healthy male adults; cited from earlier work
[2] = system: tofacitinib metabolism in rat liver microsomes (enzyme not specified); assay: Inhibition of tofacitinib metabolism in rat liver microsomes; type: in vitro ADME; settings: probe tofacitinib
[3] = cited from earlier work
[4] = system: rat liver microsomes; settings: metabolism to M8, n=3
[5] = system: cytochrome P450 3A4 (CYP3A4); settings: cited from earlier work
[6] = system: cytochrome P450 2C19 (CYP2C19); settings: cited from earlier work
[7] = in vitro; settings: Sprague-Dawley, rat, liver microsomes

| Structure (SMILES) | increase of AUC of tofacitinib when combined [1] | increase of Cmax of tofacitinib when combined [1] | IC50 at 30 min [2] | further results |
| --- | --- | --- | --- | --- |
| OC(Cn1cncn1)(Cn1cncn1)c1ccc(F)cc1F [Fluconazole] | 79% | 27% | – | – |
| COc1ccc2c(c1)C(=O)N(CCc1ccc(S(=O)(=O)NC(=O)NC3CCCCC3)cc1)C(=O)C2(C)C [Gliquidone] | – | – | 1.14 µM | half-life ([3]; after oral administration): approximately 1.5 hours |
| CC(=O)N1CCN(c2ccc(OCC3COC(Cn4ccnc4)(c4ccc(Cl)cc4Cl)O3)cc2)CC1 (stereo not drawn) [Ketoconazole] | 103% | 16% | – | – |
| CC#CCn1c(N2CCC[C@@H](N)C2)nc2c1c(=O)n(Cc1nc(C)c3ccccc3n1)c(=O)n2C [Linagliptin] | – | – | 4.06 µM | bioavailability [3]: approximately 30% |
| C[C@@H]1CCN(C(=O)CC#N)C[C@@H]1N(C)c1ncnc2[nH]ccc12 [Tofacitinib] | – | – | – | Vmax of tofacitinib enzyme kinetics [4]: 5.482 pmol/min/mg; share processed by CYP3A4 [5]: approximately 50%; share processed by CYP2C19 [6]: ~20%; Km at 30 min [7]: 37.3 µM |
